Source: publication PMC9604400, “Synthesis, Anticancer and Antitubercular Properties of New Chalcones and Their Nitrogen-Containing Five-Membered Heterocyclic Hybrids Bearing Sulfonamide Moiety” (International Journal of Molecular Sciences, 2022)

How the values were obtained:
UO-31 = experiment: NCI-60 screen (SRB), renal cancer; details: for IC50 / CC50: Homo sapiens; for IC50: UO-31; for CC50: UO-31, read-out: LC50
NCI-H522 = experiment: NCI-60 screen (SRB), non-small cell lung cancer; details: Homo sapiens; for IC50: NCI-H522; for CC50: NCI-H522, read-out: LC50
NCI-H226 = experiment: NCI-60 screen (SRB), non-small cell lung cancer; details: for IC50 / CC50: Homo sapiens; for IC50: NCI-H226; for CC50: NCI-H226, read-out: LC50
breast cancer cell lines = experiment: NCI-60 screen (SRB), breast cancer panel; assay type: cell-based; details: Homo sapiens, single dose 10 μM, read-out: GI (growth inhibition), range over panel
RPMI-8226 = experiment: NCI-60 screen (SRB), leukemia; details: Homo sapiens; for IC50: RPMI-8226; for CC50: RPMI-8226, read-out: LC50
HT29 = experiment: NCI-60 screen (SRB), colon cancer; details: Homo sapiens; for IC50: HT-29; for CC50: HT-29, read-out: LC50
PC-3 = experiment: NCI-60 screen (SRB), prostate cancer; details: Homo sapiens; for IC50: PC-3; for CC50: PC-3, read-out: LC50
SF-539 = experiment: NCI-60 screen (SRB), CNS cancer; details: Homo sapiens; for IC50: SF-539; for CC50: SF-539, read-out: LC50
MDA-MB-468 = experiment: NCI-60 screen (SRB), breast cancer; details: for IC50 / CC50: Homo sapiens; for IC50: MDA-MB-468; for CC50: MDA-MB-468, read-out: LC50
ACHN = experiment: NCI-60 screen (SRB), renal cancer; details: Homo sapiens; for CC50: read-out: LC50
BT-549 = experiment: NCI-60 screen (SRB), breast cancer; details: Homo sapiens; for IC50: BT-549; for CC50: BT-549, read-out: LC50
UACC-62 = experiment: NCI-60 screen (SRB), melanoma; details: Homo sapiens; for IC50: UACC-62; for CC50: UACC-62, read-out: LC50
T-47D = experiment: NCI-60 screen (SRB), breast cancer; details: Homo sapiens, T47D; for CC50: read-out: LC50
MALME-3M = experiment: NCI-60 screen (SRB), melanoma; details: Homo sapiens; for CC50: read-out: LC50
SR = experiment: NCI-60 screen (SRB), leukemia; details: for IC50 / CC50: Homo sapiens; for CC50: read-out: LC50
colon cancer cell lines = experiment: NCI-60 screen (SRB), colon cancer panel; assay type: cell-based; details: Homo sapiens, single dose 10 μM, read-out: GI (growth inhibition), range over panel
OVCAR-4 = experiment: NCI-60 screen (SRB), ovarian cancer; details: Homo sapiens; for IC50: OVCAR-4; for CC50: OVCAR-4, read-out: LC50
OVCAR-3 = experiment: NCI-60 screen (SRB), ovarian cancer; details: Homo sapiens; for IC50: OVCAR-3; for CC50: OVCAR-3, read-out: LC50
786-0 = experiment: NCI-60 screen (SRB), renal cancer; details: Homo sapiens; for IC50: 786-0; for CC50: 786-0, read-out: LC50
HCC-2998 = experiment: NCI-60 screen (SRB), colon cancer; details: for IC50 / CC50: Homo sapiens; for IC50: HCC 2998; for CC50: HCC 2998, read-out: LC50
A549/ATCC = experiment: NCI-60 screen (SRB), non-small cell lung cancer; details: Homo sapiens; for IC50: A549; for CC50: A549, read-out: LC50
NCI-H460 = experiment: NCI-60 screen (SRB), non-small cell lung cancer; details: Homo sapiens; for IC50: NCI-H460; for CC50: NCI-H460, read-out: LC50
M14 = experiment: NCI-60 screen (SRB), melanoma; details: Homo sapiens; for IC50: M14; for CC50: M14, read-out: LC50
OVCAR-8 = experiment: NCI-60 screen (SRB), ovarian cancer; details: Homo sapiens; for IC50: OVCAR-8; for CC50: OVCAR-8, read-out: LC50
RXF 393 = experiment: NCI-60 screen (SRB), renal cancer; details: for IC50 / CC50: Homo sapiens; for IC50: RXF 393; for CC50: RXF 393, read-out: LC50
SK-MEL-5 = experiment: NCI-60 screen (SRB), melanoma; details: Homo sapiens; for IC50: SK-MEL-5; for CC50: SK-MEL-5, read-out: LC50
SN12C = experiment: NCI-60 screen (SRB), renal cancer; details: Homo sapiens; for CC50: read-out: LC50
IGROV1 = experiment: NCI-60 screen (SRB), ovarian cancer; details: Homo sapiens; for IC50: IGROV-1; for CC50: IGROV-1, read-out: LC50
SF-268 = experiment: NCI-60 screen (SRB), CNS cancer; details: Homo sapiens; for IC50: SF-268; for CC50: SF-268, read-out: LC50
SK-MEL-2 = experiment: NCI-60 screen (SRB), melanoma; details: for IC50 / CC50: Homo sapiens; for IC50: SK-MEL-2; for CC50: SK-MEL-2, read-out: LC50
LOX IMVI = experiment: NCI-60 screen (SRB), melanoma; details: for IC50 / CC50: Homo sapiens; for CC50: read-out: LC50; for lethality: single dose 10 μM
MOLT-4 = experiment: NCI-60 screen (SRB), leukemia; details: Homo sapiens; for IC50: MOLT-4; for CC50: MOLT-4, read-out: LC50
K-562 = experiment: NCI-60 screen (SRB), leukemia; details: Homo sapiens; for IC50: K562; for CC50: K562, read-out: LC50

In the case of COc1cc(OC)c(S(N)(=O)=O)cc1C(=O)/C=C/c1ccc(Cl)cc1 [Compound 17b, (E)-5-(3-(4-Chlorophenyl)acryloyl)-2,4-dimethoxybenzenesulfonamide], the IC50 (UO-31) is reported as 2.36 µM, the CC50 (UO-31) is reported as 33.1 µM and the IC50 (NCI-H522) is reported as 1.63 µM. The CC50 (NCI-H522) was 7.14 µM, the IC50 (NCI-H226) was 2.56 µM and the CC50 (NCI-H226) was over 100 µM. For the same compound, the lethality (NCI-H226; NCI-H226, single dose 10 μM) was 25.96%, the inhibition at 10 µM (breast cancer cell lines) was 73.9 to 100% and the IC50 (RPMI-8226) was 1.86 µM. It also gave a CC50 (RPMI-8226) of over 100 µM, an IC50 (HT29) of 2.18 µM and a CC50 (HT29) of 9.97 µM. The IC50 (PC-3) was 1.6 µM, the CC50 (PC-3) was 20.8 µM and the IC50 (SF-539) was 2.14 µM. For the same compound, the CC50 (SF-539) was 12.6 µM, the IC50 (MDA-MB-468) was 3.08 µM and the CC50 (MDA-MB-468) was 6.54 µM. The lethality (MDA-MB-468; MDA-MB-468, single dose 10 μM) was 57.82%, the IC50 (ACHN) was 3.16 µM and the CC50 (ACHN) was 33.4 µM. It also gave an IC50 (BT-549) of 2.73 µM, a CC50 (BT-549) of 5.97 µM and an IC50 (UACC-62) of 2.67 µM. It also gave a CC50 (UACC-62) of 40.8 µM, an IC50 (T-47D) of 12.4 µM and a CC50 (T-47D) of 64.6 µM. The IC50 (MALME-3M) was 2.79 µM, the CC50 (MALME-3M) was 87.4 µM and the IC50 (SR) was 2.11 µM. It also gave a CC50 (SR) of over 100 µM, a lethality (SR; single dose 10 μM) of 19.50% and an inhibition at 10 µM (colon cancer cell lines) of 92.2 to 100%. It also gave an IC50 (OVCAR-4) of 3.54 µM, a CC50 (OVCAR-4) of over 100 µM and an IC50 (OVCAR-3) of 3.51 µM. The CC50 (OVCAR-3) was 66.8 µM, the IC50 (786-0) was 1.9 µM and the CC50 (786-0) was 9.83 µM. For the same compound, the IC50 (HCC-2998) was 2.41 µM, the CC50 (HCC-2998) was 22.3 µM and the IC50 (A549/ATCC) was 3.17 µM. It also gave a CC50 (A549/ATCC) of over 100 µM, an IC50 (NCI-H460) of 2.84 µM and a CC50 (NCI-H460) of over 100 µM. The IC50 (M14) was 1.47 µM, the CC50 (M14) was 6.7 µM and the IC50 (OVCAR-8) was 3.01 µM. The CC50 (OVCAR-8) was over 100 µM, the IC50 (RXF 393) was 1.62 µM and the CC50 (RXF 393) was 6.89 µM. The lethality (RXF 393; RXF 393, single dose 10 μM) was 40.37%, the IC50 (SK-MEL-5) was 4.93 µM and the CC50 (SK-MEL-5) was 43 µM. The IC50 (SN12C) was 2.48 µM, the CC50 (SN12C) was 60.2 µM and the IC50 (IGROV1) was 2.95 µM. It also gave a CC50 (IGROV1) of over 100 µM, an IC50 (SF-268) of 3.75 µM and a CC50 (SF-268) of over 100 µM. For the same compound, the IC50 (SK-MEL-2) was 11.5 µM, the CC50 (SK-MEL-2) was 57.2 µM and the IC50 (LOX IMVI) was 0.73 µM. It also gave a CC50 (LOX IMVI) of 7.03 µM, a lethality (LOX IMVI) of 50.40% and an IC50 (MOLT-4) of 2.83 µM. It also gave a CC50 (MOLT-4) of over 100 µM, an IC50 (K-562) of 1.85 µM and a CC50 (K-562) of over 100 µM.

In the case of COc1cc(OC)c(S(=O)(=O)N(CCCl)CCCl)cc1C(=O)/C=C/c1cc(OC)c(OC)c(OC)c1 [Compound 18e, (E)-N,N-bis(2-Chloroethyl)-2,4-dimethoxy-5-(3-(3,4,5-trimethoxyphenyl)acryloyl)benzenesulfonamide], the IC50 (UO-31) is reported as 2.92 µM, the CC50 (UO-31) is reported as 5.51 µM and the lethality (UO-31; UO-31, single dose 10 μM) is reported as 93.86%. For the same compound, the IC50 (NCI-H522) was 1.66 µM, the CC50 (NCI-H522) was 8.59 µM and the IC50 (NCI-H226) was 2.61 µM. It also gave a CC50 (NCI-H226) of over 100 µM, an IC50 (RPMI-8226) of 2.52 µM and a CC50 (RPMI-8226) of over 100 µM. For the same compound, the IC50 (HT29) was 5.92 µM, the CC50 (HT29) was over 100 µM and the IC50 (PC-3) was over 100 µM. It also gave a CC50 (PC-3) of over 100 µM, an IC50 (SF-539) of 3.61 µM and a CC50 (SF-539) of 7.51 µM. The IC50 (MDA-MB-468) was 3.66 µM, the CC50 (MDA-MB-468) was 8.84 µM and the IC50 (ACHN) was 6.16 µM. For the same compound, the CC50 (ACHN) was over 100 µM, the IC50 (BT-549) was 2.92 µM and the CC50 (BT-549) was 6.24 µM. For the same compound, the IC50 (UACC-62) was 4.94 µM, the CC50 (UACC-62) was over 100 µM and the IC50 (T-47D) was over 100 µM. It also gave a CC50 (T-47D) of over 100 µM, an IC50 (MALME-3M) of 7.18 µM and a CC50 (MALME-3M) of over 100 µM. The IC50 (SR) was 0.99 µM, the CC50 (SR) was over 100 µM and the IC50 (OVCAR-4) was over 100 µM. It also gave a CC50 (OVCAR-4) of over 100 µM, an IC50 (OVCAR-3) of 6.62 µM and a CC50 (OVCAR-3) of over 100 µM. The IC50 (786-0) was 5.66 µM, the CC50 (786-0) was over 100 µM and the lethality (HCC-2998; HCC-2998, single dose 10 μM) was 91.08%. The IC50 (HCC-2998) was 3.54 µM, the CC50 (HCC-2998) was 6.35 µM and the IC50 (A549/ATCC) was 3.11 µM. The CC50 (A549/ATCC) was over 100 µM, the IC50 (NCI-H460) was 1.95 µM and the CC50 (NCI-H460) was over 100 µM. The IC50 (M14) was 5.45 µM, the CC50 (M14) was over 100 µM and the IC50 (OVCAR-8) was over 100 µM. For the same compound, the CC50 (OVCAR-8) was over 100 µM, the IC50 (RXF 393) was 2.83 µM and the CC50 (RXF 393) was 6.44 µM. The IC50 (SK-MEL-5) was 3.64 µM, the CC50 (SK-MEL-5) was 7.19 µM and the IC50 (SN12C) was 13 µM. For the same compound, the CC50 (SN12C) was over 100 µM, the IC50 (IGROV1) was 9.05 µM and the CC50 (IGROV1) was over 100 µM. The IC50 (SF-268) was 7.7 µM, the CC50 (SF-268) was over 100 µM and the IC50 (SK-MEL-2) was 4.65 µM. The CC50 (SK-MEL-2) was 27.6 µM, the lethality (SK-MEL-2; SK-MEL-2, single dose 10 μM) was 94.49% and the IC50 (LOX IMVI) was 2.89 µM. It also gave a CC50 (LOX IMVI) of 5.79 µM, a lethality (LOX IMVI) of 84.53% and an IC50 (MOLT-4) of 2.04 µM. For the same compound, the CC50 (MOLT-4) was over 100 µM, the IC50 (K-562) was 1.3 µM and the CC50 (K-562) was over 100 µM.
